Assay results published in ChEMBL document CHEMBL3997804, “Evaluation of a series of 2-napthamide derivatives as inhibitors of the drug efflux pump AcrB for the reversal of antimicrobial resistance” (Bioorg Med Chem Lett, 2017).
Active and inactive are the calls of the source. The rule behind the calls is not given here. Peptide text beside a SMILES is read from it. * marks the point of attachment. βNA = c1ccc2cc(N*)ccc2c1

What was measured:
Escherichia coli BW25113 [1] = assay: Inhibition of AcrB in wild-type drug resistant Escherichia coli BW25113 assessed as potentiation of tetraphenyl phosphonium chloride-induced antibacterial activity after 18 hrs by checkerboard method
Escherichia coli BW25113 [2] = assay: Inhibition of AcrB in wild-type drug resistant Escherichia coli BW25113 assessed as potentiation of erythromycin-induced antibacterial activity after 18 hrs by checkerboard method
Escherichia coli BW25113 [3] = assay: Inhibition of AcrB in wild-type drug resistant Escherichia coli BW25113 assessed as potentiation of chloramphenicol-induced antibacterial activity after 18 hrs by checkerboard method
Escherichia coli [4] = assay: Effect on rifampicin-induced antibacterial activity against wild-type drug resistant Escherichia coli BW25113 after 18 hrs by checkerboard method; format: functional
Escherichia coli [5] = assay: Growth inhibition of wild-type drug-resistant Escherichia coli BW25113 after 18 hrs by resazurin dye based broth microdilution method
Escherichia coli BW25113 [6] = assay: Inhibition of AcrB in drug resistant Escherichia coli BW25113 assessed as reduction in nile red efflux at 200 uM pretreated for 15 mins followed by nile red addition measured after 3 hrs for 200 secs in presence of glucose by fluorimetric method
Escherichia coli [7] = assay: Effect on rifampicin-induced antibacterial activity against wild-type drug resistant Escherichia coli BW25113 assessed as rifampicin MIC at 200 ug/ml after 18 hrs by checkerboard method (reference value: 16 ug/ml); format: functional; conditions: BW25113, 18 h
Escherichia coli BW25113 [8] = assay: Inhibition of AcrB in wild-type drug resistant Escherichia coli BW25113 assessed as potentiation of chloramphenicol-induced antibacterial activity by measuring chloramphenicol MIC at 200 ug/ml after 18 hrs by checkerboard method (reference value: 8 ug/ml)
Escherichia coli BW25113 [9] = assay: Inhibition of AcrB in wild-type drug resistant Escherichia coli BW25113 assessed as potentiation of erythromycin-induced antibacterial activity by measuring erythromycin MIC at 200 ug/ml after 18 hrs by checkerboard method (reference value: 128 ug/ml)
Escherichia coli BW25113 [10] = assay: Inhibition of AcrB in wild-type drug resistant Escherichia coli BW25113 assessed as potentiation of tetraphenyl phosphonium chloride-induced antibacterial activity by measuring tetraphenyl phosphonium chloride MIC at 200 ug/ml after 18 hrs by checkerboard method (reference value: 1024 ug/ml)
Escherichia coli BW25113 [11] = assay: Inhibition of AcrB in drug resistant Escherichia coli BW25113 assessed as reduction in nile red efflux at 500 uM pretreated for 15 mins followed by nile red addition measured after 3 hrs for 200 secs in presence of glucose by fluorimetric method
Escherichia coli BW25113 [12] = assay: Inhibition of […] in drug resistant Escherichia coli BW25113 assessed as increase in outer membrane permeability by measuring increase nitrocefin hydrolysis at 512 ug/ml measured over 30 mins in presence of CCCP by spectrophotometric method

Compound	inhibition (Escherichia coli BW25113 [1])	inhibition (Escherichia coli BW25113 [2])	inhibition (Escherichia coli BW25113 [3])	Activity (Escherichia coli [4])	growth inhibition (GI) (Escherichia coli [5])	inhibition (Escherichia coli BW25113 [6])	MIC (Escherichia coli [7]) [µg/mL]	MIC (Escherichia coli BW25113 [8]) [µg/mL]	MIC (Escherichia coli BW25113 [9]) [µg/mL]	MIC (Escherichia coli BW25113 [10]) [µg/mL]	inhibition (Escherichia coli BW25113 [11])	inhibition (Escherichia coli BW25113 [12])
NC(=O)c1cc(OCc2ccc(F)cc2)c2ccccc2c1	inactive	inactive	inactive	inactive	Non-Toxic							
NC(=O)c1cc(OCc2ccccc2F)c2ccccc2c1	inactive	inactive	inactive	inactive	Non-Toxic	Active						
N=C(N)NCCC[C@H](NC(=O)[C@@H](N)Cc1ccccc1)C(=O)Nc1ccc2ccccc2c1 [PABETAN] (H-Phe-Arg-βNA)							1	2	16	128		
Cc1ccccc1COc1cc(C(N)=O)cc2ccccc12	inactive	inactive	inactive	inactive	Non-Toxic							
NC(=O)c1cc(OCc2ccccc2Cl)c2ccccc2c1	inactive	inactive	inactive	inactive	Non-Toxic							
CCOC(=O)CCCOc1cc(C(N)=O)cc2ccccc12	inactive	inactive	inactive	inactive	Non-Toxic							
CC(C)COc1cc(C(N)=O)cc2ccccc12		Active			Non-Toxic						Active	Active
NC(=O)c1cc(OCc2cccc(F)c2)c2ccccc2c1	inactive	inactive	inactive	inactive	Non-Toxic							
CCCCC(CC)COc1cc(C(N)=O)cc2ccccc12 (stereo not drawn)	inactive	inactive	inactive	inactive	Non-Toxic							
NC(=O)c1cc(OCC2CCCC2)c2ccccc2c1	inactive	inactive	inactive	inactive	Non-Toxic							
CCOC(=O)C(C)Oc1cc(C(N)=O)cc2ccccc12 (stereo not drawn)	inactive	inactive	inactive	inactive	Non-Toxic							
NC(=O)c1cc(OCc2ccccc2)c2ccccc2c1			Active		Non-Toxic						Active	Active
CCC(C)Oc1cc(C(N)=O)cc2ccccc12 (stereo not drawn)	inactive	inactive	inactive	inactive	Non-Toxic							
CCOC(=O)COc1cc(C(N)=O)cc2ccccc12	inactive	inactive	inactive	inactive	Non-Toxic							
